{"source": "patent US4649204A", "about": "“Dialkanolamine derivatives” (McNeilab, Inc., priority 1985, dated 1987)", "tested_on": "decrease in exploratory activity and ptosis induced with tetrabenazine in mice", "assay": "tetrabenazine (TBZ) antagonism test: antagonism of the decrease in exploratory activity and ptosis induced by tetrabenazine in mice (antidepressant activity)", "assay_type": "in vivo", "details": "test compound 30 minutes prior to 32 mg/kg i.p. tetrabenazine; for ED50: Mus musculus, ip", "protocol": "The antidepressant activity was determined using the \"classical\" tetrabenazine (TBZ) antagonism test. […] J. H. Nodine and J. H. Moyer (Lea and Febiger, Philadelphia) p.\nThirty minutes post tetrabenazine, the mice are tested for the presence of normal exploratory activity and ptosis. […] Three to five dosage levels, 10 mice per dosage level, are used per compound.", "key": {"[1]": {"details": "first figure of EA/Pt, read-out: TBZ ED50, EA (exploratory activity)"}, "[2]": {"details": "second figure of EA/Pt, read-out: TBZ ED50, Pt (ptosis)"}}, "note": "Structures can show the parent of a compound that is named as a salt. Where two headings read alike, the source gives them in different places."}
{"smiles": "OCCN(CCO)CC(c1ccccc1)c1ccccc1", "note": "[Example I, 2,2'-[(2,2-Diphenylethyl)imino]bis[ethanol]Hydrochloride]", "values": [{"measurement": "ED50", "setting": "[1]", "result": 15, "unit": "mg/kg"}, {"measurement": "ED50", "setting": "[2]", "result": 1.5, "unit": "mg/kg"}]}
{"smiles": "CCC(C(c1ccccc1)c1ccccc1)N(CCO)CCO", "note": "(stereo not drawn) [Example IV, 2,2'-[(1,1-Diphenyl-2-butyl)imino]bis[ethanol]Fumarate]", "values": [{"measurement": "ED50", "setting": "[1]", "result": 23, "unit": "mg/kg"}, {"measurement": "ED50", "setting": "[2]", "result": 19, "unit": "mg/kg"}]}
{"smiles": "CC(C(c1ccccc1)c1ccccc1)N(CCO)CCO", "note": "(stereo not drawn) [Example V, 2,2'-[(1,1-Diphenyl-2-propyl)imino]bis[ethanol]Fumarate]", "values": [{"measurement": "ED50", "setting": "[1]", "result": 13, "unit": "mg/kg"}, {"measurement": "ED50", "setting": "[2]", "result": 8, "unit": "mg/kg"}]}
{"smiles": "OCCN(CCO)CC(c1ccccc1)c1cccs1", "note": "(stereo not drawn) [Example VI, 2,2'-{[2-Phenyl]-2-[(2-thienyl)ethyl]imino}bis{ethanol}.HI]", "values": [{"measurement": "ED50", "setting": "[1]", "result": "~60", "unit": "mg/kg"}, {"measurement": "ED50", "setting": "[2]", "result": "~60", "unit": "mg/kg"}]}
{"smiles": "OCCN(CCO)CC(c1ccc(Cl)cc1)c1ccc(Cl)cc1", "note": "[Example VII, 2,2'-{[2,2-Bis(4-chlorophenyl)ethyl]imino}bis{ethanol}]", "values": [{"measurement": "ED50", "setting": "[1]", "result": "~60", "unit": "mg/kg"}, {"measurement": "ED50", "setting": "[2]", "result": "~60", "unit": "mg/kg"}]}
{"smiles": "OCCN(CCO)CC(F)(c1ccccc1)c1ccccc1", "note": "[Example VIII, 2,2'-[(2-Fluoro-2,2-diphenylethyl)imino]-bis[ethanol]Dihexamate]", "values": [{"measurement": "ED50", "setting": "[1]", "result": 40, "unit": "mg/kg"}, {"measurement": "ED50", "setting": "[2]", "result": 12, "unit": "mg/kg"}]}
{"smiles": "CC(CN(CCO)CCO)(c1ccccc1)c1ccccc1", "note": "[II, 2,2'-[(2,2-Diphenylpropyl)imino]bis[ethanol]Hydrochloride]", "values": [{"measurement": "ED50", "setting": "[1]", "result": 28, "unit": "mg/kg"}, {"measurement": "ED50", "setting": "[2]", "result": 35, "unit": "mg/kg"}]}
{"smiles": "CC(O)CN(CC(C)O)CC(c1ccccc1)c1ccccc1.Cl", "note": "(stereo not drawn) [III, 1,1'-[(2,2-Diphenylethyl)imino]bis[2-propanol].HCl]", "values": [{"measurement": "TBZ ED50, EA (exploratory activity)", "setting": "i.p., first figure of EA/Pt", "result": 11, "unit": "mg/kg"}, {"measurement": "TBZ ED50, Pt (ptosis)", "setting": "i.p., second figure of EA/Pt", "result": 6, "unit": "mg/kg"}]}
{"smiles": "O[C@H]1CN(CC(c2ccccc2)c2ccccc2)C[C@@H]1O", "note": "[IX, 1-(2,2-Diphenylethyl)pyrrolidine-3,4-diol Hemifumarate]", "values": [{"measurement": "ED50", "setting": "[1]", "result": 35, "unit": "mg/kg"}, {"measurement": "ED50", "setting": "[2]", "result": 6, "unit": "mg/kg"}]}
